The values that follow are results of earlier work, collected in patent publication US20080275000A1, “COMPOSITIONS FOR REDUCING, AMELIORATING, TREATING, OR PREVENTING CONDITION OF DRY EYE AND METHODS OF MAKING AND USING SAME” (priority 2007, published 2008).

The conditions of data set [1]: buffering agent pH range.
The mark [2] stands for this setting: Table 1, only or first printed value.

Like-named read-outs stand apart in the source and are kept apart here.

Usually pKa stands for the negative logarithm of the acid dissociation constant. Turning to `O=C(O)[C@@H]1CCC[C@H]1C(=O)O` (relative stereo) [1,2-trans-cyclopentanedicarboxylic acid], the pKa under setting [2] was 3.89 and the pKa (Table 1, second printed value) was 5.91.

As to `O=C(O)[C@H]1CCC[C@H](C(=O)O)C1` (relative stereo) [1,3-trans-cyclohexanedicarboxylic acid], the pKa under setting [2] is 4.18 and the pKa (Table 1, second printed value) is 5.93.

Consider `O=C(O)[C@H]1CC[C@H](C(=O)O)C1` (relative stereo) [1,3-trans-cyclopentanedicarboxylic acid], for which the pKa is recorded as 4.40 under setting [2] and 5.45 (Table 1, second printed value).

As for `O=C(O)CC1(CC(=O)O)CCCC1` [1,1-cyclopentanediacetic acid], the pKa is 3.82 under setting [2] and 6.70 (Table 1, second printed value).

Regarding `O=C(O)[C@H]1CC[C@@H](C(=O)O)CC1` [1,4-cis-cyclohexanedicarboxylic acid], the pKa reads like this: under setting [2], 4.44; (Table 1, second printed value) 5.79.

As for `COCCN(CC(=O)O)CC(=O)O` [2-methoxyethyliminodiacetic acid], the pKa is given as 2.2 (first listed value) and 8.96 (second listed value).

As for `CSCCN(CC(=O)O)CC(=O)O` [2-methylthioethyliminodiacetic acid], the pKa reads like this: (first listed value) 2.1; (second listed value) 8.91.

Regarding `CC1(C(=O)O)CCC(C(=O)O)C1(C)C` (stereo not drawn) [(+) camphoric acid], the pKa under setting [2] is on record as 4.72.

On to `O=S(=O)(O)CCN(CCO)CCO` [BES, N,N-bis{2-hydroxyethyl}2-aminoethanesulfonic acid], for which the “pH in the range of” value in data set [1] was 6.4-7.8.

Turning to `O=C(O)CN(CCN(CC(=O)O)CC(=O)O)CCN(CC(=O)O)CC(=O)O` [DTPA, diethylenetriaminepentaacetic acid], the “two pKa values” (bound stated for two pKa values) was “greater than or equal to 6.30”.

Take `O=S(=O)(O)CCN1CCN(CCO)CC1` [HEPES, N-{2-hydroxyethyl}peperazine-N′-{2-ethanesulfonic acid}]: in data set [1], the “pH in the range of” value is listed as 6.8-8.2.

As to `O=S(=O)(O)CCCN1CCOCC1` [MOPS, 3-{N-morpholino}propanesulfonic acid], the “pH in the range of” value in data set [1] was 6.5-7.9.

In the case of `O=C(O)CN(CCS(=O)(=O)O)CC(=O)O` [N-2-sulfoethyliminodiacetic acid], the pKa is recorded as 1.92 (first listed value), 2.28 (second listed value) and 8.16 (third listed value).

As for `O=C(O)CCCCCCCC(=O)O` [azelaic acid], under “Table 1, second printed value”, the pKa was 5.41.

For the molecule `CC(=O)C1C(=O)C=C(C)OC1=O` (centres unmarked) [dehydroacetic acid], under setting [2], the pKa is on record as 5.40.

Take `O=C(O)CNCC(=O)O` [iminodiacetic acid]: the pKa is on record as 2.98 (first listed value) and 9.89 (second listed value).

As for `CCCC(=O)OO` [n-peroxybutyric acid], the pKa under setting [2] was 8.2.

With `O=C(O)c1cccnc1` [nicotinic acid], the pKa reads like this: (first listed value) 10.09; (fourth listed value) 2.86; (second listed value) 9.14; (third listed value) 6.92.

In the case of `CCCCOc1ccc(C(=O)O)cc1` [p-n-butoxybenzoic acid], under setting [2], the pKa was 4.53.

Take `CCCOc1ccc(C(=O)O)cc1` [p-n-propoxybenzoic acid]: the pKa under setting [2] is 4.46.

Take `CC(=O)OO` [peroxyacetic acid]: under setting [2], the pKa is 8.2.

On to `O=COO` [peroxyformic acid], for which the pKa under setting [2] is 7.1.

On to `O=C(O)CCCCCC(=O)O` [pimelic acid], for which the pKa (Table 1, second printed value) is on record as 5.42.

Turning to `O=C(O)CCCCCCC(=O)O` [suberic acid], the pKa by setting is: under setting [2], 4.52; (Table 1, second printed value) 5.4.

For the molecule `CCCCC(=O)O` [valeric acid], the pKa under setting [2] is on record as 4.85.

Consider `CC(CC(=O)O)CC(=O)O` [β-methylglutaric acid], for which the pKa is, setting by setting: under setting [2], 4.25; (Table 1, second printed value) 6.22.
